Values after ≈ are worked out from the molar mass of the structure shown. Read-outs that look alike come from different tables or passages of the source.
Assays:
[1] = system: individual Aspergillus spp. (Table 15, species not named); assay: MFC determination, Table 15; assay type: cell-based; settings: Aspergillus sp. of Table 15; for MFC50: kills 50% of strains; for MFC90: kills 90% of strains
[2] = system: individual Aspergillus spp. (Table 14, species not named); assay: MFC determination, Table 14; assay type: cell-based; settings: Aspergillus sp. of Table 14; for MFC50: kills 50% of strains; for MFC90: kills 90% of strains
Cr. neoformans strains = assay: MIC testing (CLSI M27-A3, YNB, 72 h); assay type: cell-based, Cryptococcus neoformans; settings: for MIC Range: Cr. neoformans strains, 72 h, in µg/mL; for MIC50 / MIC90: Cr. neoformans; for MIC50: inhibits 50% of strains; for MIC90: inhibits 90% of strains
C. parapsilosis = assay: MFC determination; assay type: cell-based; settings: for MFC50 / MFC90: C. parapsilosis; for MFC50: kills 50% of strains; for MFC90: kills 90% of strains
all Candida strains [3] = assay: MIC testing (CLSI M27-A3), summary; assay type: cell-based; settings: for MIC50: inhibits 50% of strains; for MIC90: inhibits 90% of strains
[4] = system: Candida albicans ATCC 10231; assay: MIC50 growth inhibition assay of compositions (OD600), Example 12; assay type: cell-based; settings: concentration giving 50% growth inhibition
Description: Efficacy of the compositions was determined using Minimum Inhibitory Concentration assays, and the concentration of active compound giving 50% growth inhibition of the indicator organism was reported (MIC50). The assay was performed in well plates with two (Müller-Hinton medium) or three parallel (M19-medium) cell cultures for each condition.
Cell Culture Medium: Müller-Hinton and M19 without NaCl.
Indicator Organism: Candida albicans ATCC 10231
Stock Solutions of the Active Compounds and Control: • Amphotericin B (USP): vacuum dried powder was dissolved in DMSO to 2.5 mg/mL giving a final concentration after inoculation of 2.5 μg/mL in the well with the highest concentration. • compound 1A (custom made): powder was dissolved in DMSO to 2.5 mg/mL giving a final concentration after inoculation of 2.5 μg/ml compound 1A in the well with the highest concentration. It is assumed that the batch is 70% pure. • Example 3 composition: the formulation was a suspension with 18 mg/mL nanoparticles. The suspension was diluted in a medium and C. albicans inoculum to a final concentration of 5 μg/mL of compound 1A and 130 μg/mL of […]. From this solution 10 dilutions were prepared giving 0.009 μg/ml compound 1A in the lowest concentration. • Empty poly(ethylbutyl cyanoacrylate) particles: empty poly(ethylbutyl cyanoacrylate) particles were used as a reference. The empty poly(ethylbutyl cyanoacrylate) was produced in the same manner as those in Examples 2 and 3, with the exception that they were prepared at pH 1, with vanillin concentration of 10% (w/w), and. The particles were diluted in the same manner as Example 3. The highest poly(ethylbutyl cyanoacrylate) concentration tested was 130 μg/mL.
Growth measurements were performed at OD600.

Penicillium strains = assay: MIC testing (CLSI M38-A2); assay type: cell-based, Penicillium spp.; settings: for MIC50 / MIC90: Penicillium; for MIC50: inhibits 50% of strains; for MIC90: inhibits 90% of strains
C. tropicalis [5] = assay: MFC determination; assay type: cell-based; settings: for MFC Range: C. tropicalis strains, in µg/mL; for MFC50 / MFC90: C. tropicalis; for MFC50: kills 50% of strains; for MFC90: kills 90% of strains
[6] = system: all Aspergillus strains tested; assay: MIC testing (CLSI M38-A2), summary; assay type: cell-based; settings: caspofungin read as MEC; for MIC Range: in µg/mL; for MIC50: inhibits 50% of strains; for MIC90: inhibits 90% of strains
Paecilomyces strains [7] = assay: MFC determination; assay type: cell-based, Paecilomyces spp.; settings: Paecilomyces strains (5)
all Candida strains [8] = assay: MFC determination, summary; assay type: cell-based; settings: for MFC50: kills 50% of strains; for MFC90: kills 90% of strains
C. tropicalis [9] = assay: MIC testing (CLSI M27-A3); assay type: cell-based; settings: for MIC Range: C. tropicalis strains, in µg/mL; for MIC50 / MIC90: C. tropicalis; for MIC50: inhibits 50% of strains; for MIC90: inhibits 90% of strains
A. fumigatus AF91 = assay: In vitro activity (MIC) against the infecting strain, Example 17; assay type: cell-based, Aspergillus fumigatus
Description: Minimum Inhibitory Concentration: MIC testing was performed according to the Clinical and Laboratory Standards Institute (CLSI) M27-A3 and M38-A2 standards for the susceptibility testing of yeasts and filamentous fungi, respectively (Cryptococcus isolates were incubated for 72 h). For yeast strains, the incubation temperature and time were 35° C. and 24-48 h, respectively, and the inoculum size was 0.5-2.5×10^3 CFU/ml. For filamentous strains, the inoculum size was 0.4-5×10^4 CFU/ml, and the incubation time was strain and drug specific. RPMI 1640 was the test medium throughout, with the exception of the use of YNB for Cryptococcus. Inhibition endpoints for compound 1A were recorded at 50% and 100% after both 24 h and 48 h incubation; caspofungin results against Aspergillus strains were read as minimum effective concentrations (MEC), the lowest concentration that leads to small, rounded, compact growth as compared to the confluent growth of the control.

[10] = system: individual Aspergillus spp. (Table 12, species not named); assay: MFC determination, Table 12; assay type: cell-based; settings: Aspergillus sp. of Table 12; for MFC50: kills 50% of strains; for MFC90: kills 90% of strains
Paecilomyces strains [11] = assay: MIC testing (CLSI M38-A2); assay type: cell-based, Paecilomyces spp.; settings: Paecilomyces strains (5); in µg/mL

SMILES	MFC50 [1]	MFC90 [1]	MFC50 [2]	MFC90 [2]	MIC Range (Cr. neoformans strains)	MIC50 (Cr. neoformans strains)	MIC90 (Cr. neoformans strains)	MFC50 (C. parapsilosis)	MFC90 (C. parapsilosis)	MIC50 (all Candida strains [3])	MIC90 (all Candida strains [3])	MIC50 (Penicillium strains)	MIC90 (Penicillium strains)	MFC Range (C. tropicalis [5])	MFC50 (C. tropicalis [5])	MFC90 (C. tropicalis [5])	MIC Range [6]	MIC50 [6]	MIC90 [6]	MFC50 (all Candida strains [8])	also measured
C[C@@H]1[C@H](O)[C@@H](C)/C=C/C=C/C=C/C=C/C=C/C=C/C=C/[C@H](O[C@@H]2O[C@H](C)[C@@H](O)[C@H](N)[C@@H]2O)C[C@@H]2O[C@](O)(C[C@@H](O)C[C@@H](O)[C@H](O)CC[C@@H](O)C[C@@H](O)CC(=O)O[C@H]1C)C[C@H](O)[C@H]2C(=O)O [Amphotericin B]	> 32 µg/mL	> 32 µg/mL	2 µg/mL (≈ 2.16 µM)	> 8 µg/mL	0.06-1	0.25 µg/mL (≈ 0.271 µM)	0.5 µg/mL (≈ 0.541 µM)	1 µg/mL (≈ 1.08 µM)	1 µg/mL (≈ 1.08 µM)	0.5 µg/mL (≈ 0.541 µM)	0.5 µg/mL (≈ 0.541 µM)	1 µg/mL (≈ 1.08 µM)	2 µg/mL (≈ 2.16 µM)	0.25-1	0.5 µg/mL (≈ 0.541 µM)	1 µg/mL (≈ 1.08 µM)	0.25-16	1 µg/mL (≈ 1.08 µM)	8 µg/mL (≈ 8.66 µM)	0.5 µg/mL (≈ 0.541 µM)	MFC Range (C. parapsilosis; C. parapsilosis strains, in µg/mL): 0.5-2; MIC Range (all Candida strains [3]; in µg/mL): 0.125-1; MIC50 ([4]; M19 medium): 0.34 µg/mL (≈ 0.368 µM); MIC50 ([4]; Müller-Hinton medium): 0.04 µg/mL (≈ 0.0433 µM); MIC Range (Penicillium strains; Penicillium strains, in µg/mL): 0.5-4; MFC Range (Paecilomyces strains [7]): > 4 µg/mL; MFC Range (all Candida strains [8]; in µg/mL): 0.125-2; MFC90 (all Candida strains [8]): 1 µg/mL (≈ 1.08 µM); MIC Range (C. tropicalis [9]): 0.25-0.5; MIC50 (C. tropicalis [9]): 0.25 µg/mL (≈ 0.271 µM); MIC90 (C. tropicalis [9]): 0.5 µg/mL (≈ 0.541 µM); MIC (A. fumigatus AF91): 2 µg/mL (≈ 2.16 µM); MFC50 [10]: 8 µg/mL (≈ 8.66 µM); MFC90 [10]: > 32 µg/mL
C[C@@H](c1ncncc1F)[C@](O)(Cn1cncn1)c1ccc(F)cc1F [Voriconazole, voriconazole]	> 4 µg/mL	> 4 µg/mL	> 8 µg/mL	> 8 µg/mL	<0.06-0.25	< 0.06 µg/mL	0.125 µg/mL (≈ 0.358 µM)	> 32 µg/mL	> 32 µg/mL	0.06 µg/mL (≈ 0.172 µM)	1 µg/mL (≈ 2.86 µM)	4 µg/mL (≈ 11.5 µM)	> 32 µg/mL	>32	> 32 µg/mL	> 32 µg/mL	0.06-8	0.5 µg/mL (≈ 1.43 µM)	2 µg/mL (≈ 5.73 µM)	> 32 µg/mL	MFC (C. parapsilosis; individual C. parapsilosis strain with elevated MICs to non-polyene comparators (Table 22), in µg/mL): >32; MIC Range (Paecilomyces strains [11]): 0.125-2; MFC90 (all Candida strains [8]): > 32 µg/mL; MIC Range (C. tropicalis [9]): <0.06-1; MIC50 (C. tropicalis [9]): 0.06 µg/mL (≈ 0.172 µM); MIC90 (C. tropicalis [9]): 0.06 µg/mL (≈ 0.172 µM); MIC (A. fumigatus AF91; Aspergillus fumigatus, read-out: MIC): 1 µg/mL (≈ 2.86 µM); MFC50 [10]: 4 µg/mL (≈ 11.5 µM); MFC90 [10]: > 16 µg/mL
